Data reported in patent publication US6528528B2 (Warner-Lambert Company, priority 1997, dated 2003).

Legend:
[1] = molecular target: T1, rabbit reticulocyte 15-LO (Oryctolagus cuniculus, UniProt P12530); test: Rabbit Reticulocyte 15-LO Assay (h15LO); type: biochemical; conditions: Table 2; for IC50: 2U rabbit reticulocyte 15-LO, 174 μM linoleic acid, 15 minutes at 4° C.
T1 construct: Fifteen-lipoxygenase was obtained from phenylhydrazine-treated rabbits and purified per the method of Rapoport; from tissue; host or cells: reticulocytes of phenylhydrazine-treated rabbits
T1 sequence (P12530 1-663): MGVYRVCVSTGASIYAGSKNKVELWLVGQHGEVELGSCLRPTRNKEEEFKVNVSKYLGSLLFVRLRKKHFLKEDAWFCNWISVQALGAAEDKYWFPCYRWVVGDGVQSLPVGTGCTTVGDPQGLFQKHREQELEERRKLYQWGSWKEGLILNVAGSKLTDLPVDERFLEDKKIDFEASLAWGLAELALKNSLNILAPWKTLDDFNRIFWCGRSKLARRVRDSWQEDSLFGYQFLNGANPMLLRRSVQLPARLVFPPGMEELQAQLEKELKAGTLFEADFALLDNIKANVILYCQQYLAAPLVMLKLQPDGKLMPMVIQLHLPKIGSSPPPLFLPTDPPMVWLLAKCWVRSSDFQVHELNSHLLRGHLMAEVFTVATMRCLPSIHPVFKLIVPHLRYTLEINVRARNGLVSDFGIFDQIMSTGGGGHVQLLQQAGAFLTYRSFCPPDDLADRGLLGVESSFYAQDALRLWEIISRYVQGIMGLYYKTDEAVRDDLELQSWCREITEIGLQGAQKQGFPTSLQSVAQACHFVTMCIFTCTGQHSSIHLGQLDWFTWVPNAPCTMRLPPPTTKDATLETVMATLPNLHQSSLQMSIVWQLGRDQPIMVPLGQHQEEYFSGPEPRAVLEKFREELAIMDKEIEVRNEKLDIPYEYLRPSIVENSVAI
In short: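 Linoleic acid oxidation to 13-HPODE measured at 4° C. over 15 minutes, using 174 μM substrate and 2U enzyme purified from phenylhydrazine-treated rabbits in PBS/0.2% Na cholate. Product peak areas calibrated with authentic 13-HODE; inhibition expressed versus maximal reaction.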

SMILES | IC50 [1] | melting point | inhibition at 10 µM ([1]; 0.25 h, @ 10 μM, read-out: h15LO % @ 10 μM)
COc1ccc(S(=O)(=O)Nc2ccccc2)cc1NC(=S)Nc1cc(Cl)cc(Cl)c1 [Example 109, 3-[3-(3,5-Dichlorophenyl)-thioureido]-4-methoxy-N-phenyl-benzenesulfonamide] |  | 163 to 165 °C | 26%
CCc1ccc(C(=O)Nc2ccccc2)cc1NC(=S)Nc1cccc(C(F)(F)F)c1 [Example 110, 4-Ethyl-N-phenyl-3-[3-(3-trifluoromethylphenyl)-thioureido]-benzamide] | 290 nM | 166 to 167 °C | 
CCc1ccc(C(=O)Nc2ccc(F)c(F)c2)cc1NC(=S)Nc1cccc(C(F)(F)F)c1 [Example 111, 4-Ethyl-N-(3,4-difluorophenyl)-3-[3-(3-trifluoromethyl-phenyl)-thioureido]-benzamide] | 79 nM | 169 to 170 °C | 
COc1ccc(C(=O)Nc2ccccc2)cc1NC(=S)Nc1cccc(C(=O)O)c1 [Example 113, 3-[3-(2-Methoxy-5-phenylcarbamoyl-phenyl)-thioureido]-benzoic Acid] | 52 nM | 196 to 197 °C | 
O=C(Nc1ccc(F)c(NC(=S)Nc2cccc(C(F)(F)F)c2)c1)c1ccc(Cl)c(Cl)c1 [Example 114, 3,4-Dichloro-N-{4-fluoro-3-[3-(3-trifluoromethylphenyl)-thioureido]-phenyl}-benzamide] | 120 nM | 172 to 174 °C | 
COc1ccc(NC(=O)c2ccc(Cl)c(Cl)c2)cc1NC(=S)Nc1cc(Cl)cc(Cl)c1 [Example 115, 3,4-Dichloro-N-{3-[3-(3,5-dichlorophenyl)-thioureido]-4-methoxyphenyl}-benzamide] | 44 nM | 183 to 186 °C | 
COc1ccc(C(=O)Nc2ccccc2)cc1NS(=O)(=O)c1cc(Cl)cc(Cl)c1 [Example 118, 3-(3,5-Dichloro-benzenesulfonylamino)-4-methoxy-N-phenyl-benzamide] | 49 nM | 222 to 228 °C | 
COc1ccc(C(=O)Nc2ccccc2)cc1NS(=O)(=O)c1cccc([N+](=O)[O-])c1 [Example 122, 3-(3-Nitro-benzenesulfonylamino)-4-methoxy-N-phenyl-benzamide] | 187 nM | 208 to 210 °C | 
COc1ccc(C(=O)Nc2ccccc2)cc1NS(=O)(=O)c1ccc(C)cc1 [Example 124, 3-(4-Methyl-benzenesulfonylamino)-4-methoxy-N-phenyl-benzamide] | 48 nM | 200 to 202 °C | 
COc1ccc(C(=O)Nc2ccccc2)cc1NS(=O)(=O)c1cc(Br)c(Br)s1 [Example 126, 3-(4,5-Dibromothiophene-2-sulfonylamino)-4-methoxy-N-phenyl-benzamide] | 48 nM | 205 to 210 °C | 
COc1ccc(C(=O)Nc2ccccc2)cc1NS(=O)(=O)c1ccccc1Cl [Example 127, 3-(2-Chlorobenzenesulfonylamino)-4-methoxy-N-phenyl-benzamide] | 167 nM | 107 to 109 °C | 
COc1ccc(C(=O)Nc2ccccc2)cc1NS(=O)(=O)c1ccc(C(F)(F)F)cc1 [Example 128, 3-(4-Trifluoromethyl-benzenesulfonylamino)-4-methoxy-N-phenyl-benzamide] | 54 nM | 197 to 198 °C | 
CCCCS(=O)(=O)Nc1cc(C(=O)Nc2ccccc2)ccc1OC [Example 129, 3-(Butane-1-sulfonylamino)-4-methoxy-N-phenyl-benzamide] | 79 nM | 182 to 183 °C | 
COc1ccc(C(=O)Nc2ccccc2)cc1NS(=O)(=O)c1cccc2cccnc12 [Example 130, 3-(Quinoline-8-sulfonylamino)-4-methoxy-N-phenyl-benzamide] | 402 nM | 187 to 188 °C | 
COc1ccc(C(=O)Nc2ccccc2)cc1NS(=O)(=O)c1sc(NC(C)=O)nc1C [Example 131, 3-(2-Acetylamino-4-methylthiazole-5-sulfonylamino)-4-methoxy-N-phenyl-benzamide] | 609 nM | 260 to 261 °C | 
COc1ccc(C(=O)Nc2ccccc2)cc1NS(=O)(=O)c1cc(Cl)sc1Cl [Example 132, 3-(2,5-Dichlorothiophene-3-sulfonylamino)-4-methoxy-N-phenyl-benzamide] | 115 nM | 189 to 190 °C | 
COc1ccc(C(=O)Nc2ccccc2)cc1NS(=O)(=O)c1cccc2ccccc12 [Example 133, 3-(Naphthalene-1-sulfonylamino)-4-methoxy-N-phenyl-benzamide] | 58 nM | 212 to 213 °C | 
CCS(=O)(=O)Nc1cc(C(=O)Nc2ccccc2)ccc1OC [Example 134, 3-Ethanesulfonylamino-4-methoxy-N-phenyl-benzamide] | 137 nM | 175 to 177 °C | 
COc1ccc(C(=O)Nc2ccccc2)cc1NS(=O)(=O)Cc1ccccc1 [Example 135, 3-Phenylmethanesulfonylamino-4-methoxy-N-phenyl-benzamide] | 63 nM | 216 °C | 
COc1ccc(C(=O)Nc2ccccc2)cc1NS(=O)(=O)c1ccc(Cl)c(Cl)c1 [Example 136, 3-(3,4-Dichloro-benzenesulfonylamino)-4-methoxy-N-phenyl-benzamide] | 48 nM | 191 to 193 °C | 
COc1ccc(C(=O)Nc2ccccc2)cc1NS(=O)(=O)c1ccc(F)cc1F [Example 137, 3-(2,4-Difluoro-benzenesulfonylamino)-4-methoxy-N-phenyl-benzamide] | 151 nM | 198 to 200 °C | 
COc1ccc(C(=O)Nc2ccccc2)cc1NS(=O)(=O)c1ccc(NC(C)=O)cc1 [Example 139, 3-(4-Acetylamino-benzenesulfonylamino)-4-methoxy-N-phenyl-benzamide] | 104 nM | 250 to 251 °C | 
COc1ccc(C(=O)Nc2ccccc2)cc1NS(=O)(=O)c1cn(C)cn1 [Example 141, 3-(1-Methyl-1H-imidazole-4-sulfonylamino)-4-methoxy-N-phenyl-benzamide] | 582 nM | 250 to 252 °C | 

Results, then the compound that gave them:

IC50 [1] | melting point | inhibition at 10 µM ([1]; 0.25 h, @ 10 μM, read-out: h15LO % @ 10 μM) | SMILES
14 nM | 190 to 193 °C |  | COc1ccc(C(=O)Nc2ccc(Cl)c(Cl)c2)cc1NC(=S)Nc1ccc(S(N)(=O)=O)cc1 [Example 105, N-(3,4-Dichlorophenyl)-4-methoxy-3-[3-(4-sulfamoyl-phenyl)-thioureido]-benzamide]
11 nM | 172 to 175 °C |  | CSc1ccc(C(=O)Nc2ccccc2)cc1NC(=S)Nc1cc(Cl)cc(Cl)c1 [Example 106, 3-[3-(3,5-Dichlorophenyl)-thioureido]-4-methylsulfanyl-N-phenyl-benzamide]
9 nM | 180 to 183 °C |  | COc1ccc(C(=O)Nc2ccc(F)c(F)c2)cc1NC(=S)Nc1cc(Cl)cc(Cl)c1 [Example 107, 3-[3-(3,5-Dichlorophenyl)-thioureido]-N-(3,4-difluoro-phenyl)-4-methoxy-benzamide]
34 nM | 184 to 185 °C |  | COc1ccc(C(=O)Nc2cccc(Cl)c2)cc1NC(=S)Nc1ccc(F)cc1 [Example 108, N-(3-Chlorophenyl)-3-[3-(4-fluorophenyl)-thioureido]-4-methoxy-benzamide]
26 nM | 191 to 192 °C |  | COc1ccc(C(=O)Nc2cccnc2)cc1NC(=S)Nc1cccc(C(=O)O)c1 [Example 112, 3-{3-[2-Methoxy-5-(pyridin-3-ylcarbamoyl)-phenyl]-thioureido}-benzoic acid]
40 nM | 190 to 194 °C |  | COc1ccc(C(=O)Nc2ccccc2)cc1NS(=O)(=O)c1ccccc1 [Example 120, 3-Benzenesulfonylamino-4-methoxy-N-phenyl-benzamide]
25 nM | 184 to 186 °C |  | COc1ccc(S(=O)(=O)Nc2cc(C(=O)Nc3ccccc3)ccc2OC)cc1 [Example 121, 3-(4-Methoxy-benzenesulfonylamino)-4-methoxy-N-phenyl-benzamide]
31 nM | 197 to 199 °C |  | COc1ccc(C(=O)Nc2ccccc2)cc1NS(=O)(=O)c1cccc(Cl)c1 [Example 123, 3-(3-Chloro-benzenesulfonylamino)-4-methoxy-N-phenyl-benzamide]
28 nM | 209 to 211 °C |  | COc1ccc(C(=O)Nc2ccccc2)cc1NS(=O)(=O)c1ccc(F)cc1 [Example 125, 3-(4-Fluoro-benzenesulfonylamino)-4-methoxy-N-phenyl-benzamide]
28 nM | 195 to 197 °C |  | COc1ccc(C(=O)Nc2ccccc2)cc1NS(=O)(=O)c1cccc(C)c1 [Example 138, 3-(Toluene-3-sulfonylamino)-4-methoxy-N-phenyl-benzamide]
